US12274732B2, “Anti-pathogen composition and methods of use thereof” (Tenfold Technologies, LLC, priority 2017, dated 2025)
Values after ≈ are worked out from the molar mass of the structure shown. Like-named read-outs stand apart in the source and are kept apart here. Positions of bridges follow the written chain, without caps; N, C: chain ends. Non-standard residues stand in square brackets, D forms with d. Residues, ends and D or L forms follow the SMILES beside them. ξ: configuration not given here. *: point of attachment. Pentadecanoyl(3ξ-OH,15-Gua) = N=C(N)NCCCCCCCCCCCCC(O)CC(=O)*; d(aThr) = C[C@@H](O)[C@@H](N)C(=O)O

Experiments:
Type in all cases: cell-based
Candida albicans = experiment: In vitro antimicrobial activity against Candida albicans; settings: for IC50: Candida albicans; for C. albicans MIC (minimum inhibitory concentration): lowest concentration that allows no detectable growth
Method: (§1) Fifty organic extracts were prepared from 25 whole broth of four microbial strains (MS1479, MS2379, MS2820, and MS2414), which were fermented in different media for the antimicrobial testing. Note each whole broth culture generated one n-butanol extract from cultural supernatant and one methanol extract from cell pellets.
(§2) The antimicrobial activities of the 50 organic extracts were studied against three fungal pathogens—Candida albicans, Aspergillus fumigatus, and Cryptococcus neoformans—and five bacterial strains-Methicillin-resistant Staphylococcus aureus (MIRSA), Escherichia coli, Pseudomonas aeruginosa, Klebsiella pneumoniae, and Vancomycin-resistant Enterococcus faecium (VRE) (FIG. 2). The test concentrations for all extracts were in the range of 8-200 μg/mL (Table 3).
(§3) The antimicrobial activities of identified fusaricidins were in an in vitro study against several clinically relevant microbes. […] For the in-vitro assays against bacteria, fusaricidins were tested against methicillin-resistant Staphylococcus aureus, vancomycin-resistant Enterococcus faecium, Escherichia coli, and Pseudomonas aeruginosa using four antibacterial drugs methicillin, vancomycin, cefotaxime, and meropenem as controls. […] Fusaricidins were also tested against fungal pathogens Cryptococcus neoformans, Candida albicans, and Aspergillus fumigatus and compared with two antifungal drugs, fluconazole and amphotericin B (Table 13). Moreover, the anti-parasitic activity was also tested against L. donovani and T. brucei (Table 14).

[1] = tested on: Vancomycin-resistant Enterococcus faecium (VRE); experiment: In vitro antimicrobial activity against VRE; settings: for VRE IC50: Table 5, extracts tested at 8-200 μg/mL
Method: as §1, §2, §3

Cryptococcus neoformans = experiment: In vitro antimicrobial activity against Cryptococcus neoformans; settings: for C. neoformans IC50: Table 5, extracts tested at 8-200 μg/mL
Method: as §1, §2
The potent activities against the fungal pathogen C. neoformans and the gram-positive bacteria S. aureus, MRSA, and M. intracellulare were also shown in the crude extracts (FIG. 7).
as §3

Aspergillus fumigatus = experiment: In vitro antimicrobial activity against Aspergillus fumigatus
Method: as §1, §2, §3

Klebsiella pneumoniae = experiment: In vitro antimicrobial activity against Klebsiella pneumoniae; settings: Klebsiella pneumoniae; test conc. 200-8 μg/mL (extracts), 100-4 or 10-0.4 μg/mL (drugs); read-out: K pneumoniae IC50
Method: as §1, §2

Escherichia coli = experiment: In vitro antimicrobial activity against Escherichia coli
Method: as §1, §2, §3

Pseudomonas aeruginosa = experiment: In vitro antimicrobial activity against Pseudomonas aeruginosa
Method: as §1, §2, §3

[2] = tested on: Methicillin-resistant Staphylococcus aureus (MRSA); experiment: In vitro antimicrobial activity against MRSA
Method: as §1, §2, §3

[3] = Table 5, extracts tested at 8-200 μg/mL
[4] = test conc. 200-8 μg/mL (extracts), 100-4 or 10-0.4 μg/mL (drugs), read-out: VRE IC50
[5] = Cryptococcus neoformans, test conc. 200-8 μg/mL (extracts), 100-4 or 10-0.4 μg/mL (drugs), read-out: C. neoformans IC50
[6] = Escherichia coli, test conc. 200-8 μg/mL (extracts), 100-4 or 10-0.4 μg/mL (drugs), read-out: E. coli IC50
[7] = Pseudomonas aeruginosa, test conc. 200-8 μg/mL (extracts), 100-4 or 10-0.4 μg/mL (drugs), read-out: P. aeruginosa IC50
[8] = Staphylococcus aureus, MRSA, test conc. 200-8 μg/mL (extracts), 100-4 or 10-0.4 μg/mL (drugs), read-out: MRS IC50
[9] = Table 12, highest test conc. fusaricidins 20, controls 100 μg/mL
[10] = Table 13, Vancomycin-resistant Enterococcus faecium ATCC 700221
[11] = Table 12, lowest concentration that allows no detectable growth
[12] = Table 13, Escherichia coli ATCC 2452
[13] = Table 13, Pseudomonas aeruginosa ATCC 2108
[14] = Table 13, Methicillin-resistant Staphylococcus aureus ATCC 1708

COc1cccc(OC)c1C(=O)N[C@@H]1C(=O)N2[C@@H]1SC(C)(C)[C@@H]2C(=O)O [Methicillin]
IC50 (Candida albicans; test conc. 200-8 μg/mL (extracts), 100-4 or 10-0.4 μg/mL (drugs), read-out: C. albicans IC50): > 100 mg/L
C. albicans IC50 (Candida albicans; [3]): >100 mg/L
IC50 ([1]; ATCC 700221 / VRE, Table 13, Vancomycin-resistant Enterococcus faecium ATCC 700221, read-out: VRE IC50 (50% growth inhibitory concentration)): > 100 mg/L
MIC ([1]; ATCC 700221 / VRE, Table 13, Vancomycin-resistant Enterococcus faecium ATCC 700221, read-out: VRE MIC (minimum inhibitory concentration)): > 100 mg/L
VRE IC50 [1]: >100 mg/L
IC50 [1, 4]: > 100 mg/L
IC50 (Cryptococcus neoformans; [5]): > 100 mg/L
C. neoformans IC50 (Cryptococcus neoformans): >100 mg/L
IC50 (Aspergillus fumigatus; Aspergillus fumigatus, test conc. 200-8 μg/mL (extracts), 100-4 or 10-0.4 μg/mL (drugs), read-out: A. fumigatus IC50): > 100 mg/L
A. fumigatus IC50 (Aspergillus fumigatus; [3]): >100 mg/L
IC50 (Klebsiella pneumoniae): > 100 mg/L
IC50 (Escherichia coli; ATCC2452, Table 13, Escherichia coli ATCC 2452, read-out: E. coli IC50 (50% growth inhibitory concentration)): > 100 mg/L
MIC (Escherichia coli; ATCC2452, Table 13, Escherichia coli ATCC 2452, read-out: E. coli MIC (minimum inhibitory concentration)): > 100 mg/L
IC50 (Escherichia coli; [6]): > 100 mg/L
IC50 (Pseudomonas aeruginosa; ATCC2108, Table 13, Pseudomonas aeruginosa ATCC 2108, read-out: P. aeruginosa IC50 (50% growth inhibitory concentration)): 76 mg/L (≈ 200 µM)
MIC (Pseudomonas aeruginosa; ATCC2108, Table 13, Pseudomonas aeruginosa ATCC 2108, read-out: P. aeruginosa MIC (minimum inhibitory concentration)): > 100 mg/L
IC50 (Pseudomonas aeruginosa; [7]): 95.4 mg/L (≈ 251 µM)
IC50 ([2]; ATCC 1708 / MRSA, Table 13, Methicillin-resistant Staphylococcus aureus ATCC 1708, read-out: MRSA IC50 (50% growth inhibitory concentration)): 12.1 mg/L (≈ 31.8 µM)
MIC ([2]; ATCC 1708 / MRSA, Table 13, Methicillin-resistant Staphylococcus aureus ATCC 1708, read-out: MRSA MIC (minimum inhibitory concentration)): 50 mg/L (≈ 131 µM)
IC50 [2, 8]: 19 mg/L (≈ 49.9 µM)

CC(C)[C@@H]1NC(=O)[C@@H](C(C)C)NC(=O)[C@@H](NC(=O)CC(O)CCCCCCCCCCCCN=C(N)N)[C@@H](C)OC(=O)[C@@H](C)NC(=O)[C@@H](CC(N)=O)NC(=O)[C@@H]([C@@H](C)O)NC1=O (some centres unmarked) [Fusaricidin A (SQ-1-43 A)] ({Pentadecanoyl(3ξ-OH,15-Gua)}-T[dV]V[d(aThr)][dN][dA]; ester 1-C)
C. albicans IC50 (50% growth inhibitory concentration) (Candida albicans; [9]): 5.1 mg/L
C. albicans MIC (minimum inhibitory concentration) (Candida albicans; Table 12): 10.0 mg/L
VRE IC50 (50% growth inhibitory concentration) [1, 10]: 3.6 mg/L
VRE MIC (minimum inhibitory concentration) [1, 10]: 5.0 mg/L
C. neoformans IC50 (50% growth inhibitory concentration) (Cryptococcus neoformans; [9]): 0.5 mg/L
C. neoformans MIC (minimum inhibitory concentration) (Cryptococcus neoformans; [11]): 1.3 mg/L
A. fumigatus IC50 (50% growth inhibitory concentration) (Aspergillus fumigatus; [9]): >20/>20 μg/mL
A. fumigatus MIC (minimum inhibitory concentration) (Aspergillus fumigatus; [11]): >20/>20 μg/mL
E. coli IC50 (50% growth inhibitory concentration) (Escherichia coli; [12]): >20/>20 μg/mL
E. coli MIC (minimum inhibitory concentration) (Escherichia coli; [12]): >20/>20 μg/mL
P. aeruginosa IC50 (50% growth inhibitory concentration) (Pseudomonas aeruginosa; [13]): >20/>20 μg/mL
P. aeruginosa MIC (minimum inhibitory concentration) (Pseudomonas aeruginosa; [13]): >20/>20 μg/mL
MRSA IC50 (50% growth inhibitory concentration) [2, 14]: 2.3 mg/L
MRSA MIC (minimum inhibitory concentration) [2, 14]: 2.5 mg/L

CC(C)[C@@H]1NC(=O)[C@@H](C(C)C)NC(=O)[C@@H](NC(=O)CC(O)CCCCCCCCCCCCN=C(N)N)[C@@H](C)OC(=O)[C@@H](C)NC(=O)[C@@H](CC(N)=O)NC(=O)[C@@H]([C@@H](C)O)NC1=O (some centres unmarked) [Fusaricidin A (RRR-8-32Q)] ({Pentadecanoyl(3ξ-OH,15-Gua)}-T[dV]V[d(aThr)][dN][dA]; ester 1-C)
C. albicans IC50 (50% growth inhibitory concentration) (Candida albicans; [9]): 3.5 mg/L
C. albicans MIC (minimum inhibitory concentration) (Candida albicans; Table 12): 5.0 mg/L
VRE IC50 (50% growth inhibitory concentration) [1, 10]: 3.7 mg/L
VRE MIC (minimum inhibitory concentration) [1, 10]: 5.0 mg/L
C. neoformans IC50 (50% growth inhibitory concentration) (Cryptococcus neoformans; [9]): 1.2 mg/L
C. neoformans MIC (minimum inhibitory concentration) (Cryptococcus neoformans; [11]): 2.5 mg/L
A. fumigatus IC50 (50% growth inhibitory concentration) (Aspergillus fumigatus; [9]): 18.5 µg/mL
A. fumigatus MIC (minimum inhibitory concentration) (Aspergillus fumigatus; [11]): > 20 µg/mL
E. coli IC50 (50% growth inhibitory concentration) (Escherichia coli; [12]): >20/>20 μg/mL
E. coli MIC (minimum inhibitory concentration) (Escherichia coli; [12]): >20/>20 μg/mL
P. aeruginosa IC50 (50% growth inhibitory concentration) (Pseudomonas aeruginosa; [13]): >20/>20 μg/mL
P. aeruginosa MIC (minimum inhibitory concentration) (Pseudomonas aeruginosa; [13]): >20/>20 μg/mL
MRSA IC50 (50% growth inhibitory concentration) [2, 14]: 2.1 mg/L
MRSA MIC (minimum inhibitory concentration) [2, 14]: 2.5 mg/L

O=C(O)c1cn(C2CC2)c2cc(N3CCNCC3)c(F)cc2c1=O [Ciprofloxacin]
VRE IC50 [1]: >10 mg/L
IC50 [1, 4]: > 10 mg/L
IC50 (Cryptococcus neoformans; [5]): > 10 mg/L
C. neoformans IC50 (Cryptococcus neoformans): >10 mg/L
IC50 (Klebsiella pneumoniae): > 10 mg/L
IC50 (Escherichia coli; [6]): < 0.01 mg/L
IC50 (Pseudomonas aeruginosa; [7]): 0.81 mg/L (≈ 2.44 µM)
IC50 [2, 8]: > 10 mg/L
MRS IC50 [2, 3]: >10 mg/L

OC(Cn1cncn1)(Cn1cncn1)c1ccc(F)cc1F [Fluconazol]
IC50 (Candida albicans; Table 12, highest test conc. fusaricidins 20, controls 100 μg/mL, read-out: C. albicans IC50 (50% growth inhibitory concentration)): 1 mg/L (≈ 3.27 µM)
IC50 (Cryptococcus neoformans; Cryptococcus neoformans, Table 12, highest test conc. fusaricidins 20, controls 100 μg/mL, read-out: C. neoformans IC50 (50% growth inhibitory concentration)): 2.5 mg/L (≈ 8.16 µM)
MIC (Cryptococcus neoformans; Cryptococcus neoformans, Table 12, lowest concentration that allows no detectable growth, read-out: C. neoformans MIC (minimum inhibitory concentration)): 6.3 mg/L (≈ 20.6 µM)
IC50 (Aspergillus fumigatus; Aspergillus fumigatus, Table 12, highest test conc. fusaricidins 20, controls 100 μg/mL, read-out: A. fumigatus IC50 (50% growth inhibitory concentration)): > 100 mg/L
MIC (Aspergillus fumigatus; Aspergillus fumigatus, Table 12, lowest concentration that allows no detectable growth, read-out: A. fumigatus MIC (minimum inhibitory concentration)): > 100 mg/L
